Measured values published in patent US9512107B2, “Therapeutically active compositions and their methods of use” (Agios Pharmaceuticals, Inc., priority 2012, dated 2016).

Assays:
IDH2 R140Q = target: T1, IDH2 R140Q (Homo sapiens, UniProt P48735, R140Q); test: IDH2 R140Q enzymatic assay (cofactor depletion, similar format); assay type: biochemical; conditions: read-out: Enz R140Q
T1 sequence (P48735 40-452 R140Q): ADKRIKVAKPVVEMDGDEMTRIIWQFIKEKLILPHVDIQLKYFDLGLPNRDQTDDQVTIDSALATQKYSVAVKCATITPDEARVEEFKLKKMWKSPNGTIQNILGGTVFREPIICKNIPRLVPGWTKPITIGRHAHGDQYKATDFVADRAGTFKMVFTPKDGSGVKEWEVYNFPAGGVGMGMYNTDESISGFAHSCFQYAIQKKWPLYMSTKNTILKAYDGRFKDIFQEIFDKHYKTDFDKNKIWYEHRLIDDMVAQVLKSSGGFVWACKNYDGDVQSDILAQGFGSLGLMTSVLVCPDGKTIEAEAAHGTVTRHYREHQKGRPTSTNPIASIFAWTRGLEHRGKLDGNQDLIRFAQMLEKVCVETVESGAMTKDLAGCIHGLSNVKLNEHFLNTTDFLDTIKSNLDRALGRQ
Protocol: [The source words this procedure for another variant and says it was used here with some conditions changed.] Compounds are assayed for IDH2 R172K inhibitory activity through a cofactor depletion assay. […] The reaction is terminated by the addition of a second enzyme, diaphorase, and a corresponding substrate, resazurin. Diaphorase reduces resazurin to the highly fluorescent resorufin with the concomitant oxidation of NADPH to NADP, both halting the IDH2 reaction by depleting the available cofactor pool and facilitating quantitation of the amount of cofactor remaining after a specific time period through quantitative production of an easily detected fluorophore.
The test compound is then incubated for one hour at room temperature with the enzyme; before starting the IDH2 reaction with the addition of 10 μl of substrate mix containing 50 μM NADPH and 6.3 mM α-KG in the buffer described above. After a further one hour of incubation at room temperature, the reaction is halted and the remaining NADPH measured through conversion of resazurin to resorufin by the addition of 25 μl Stop Mix (36 μg/ml diaphorase enzyme and 60 μM resazurin; in buffer).

[1] = tested on: U87MG pLVX-IDH2 R140Q-neo cells; test: U87MG pLVX-IDH2 R140Q-neo cell based assay, 2-HG in media by LC-MS at 48 hours; conditions: Homo sapiens, U-87 MG
Protocol: U87MG pLVX-IDH2 R140Q-neo cells are grown in T125 flasks in DMEM containing 10% FBS, 1× penicillin/streptomycin and 500 μg/mL G418. They are harvested by trypsin and seeded into 96 well white bottom plates at a density of 5000 cell/well in 100 μl/well in DMEM with 10% FBS. No cells are plated in columns 1 and 12. Cells are incubated overnight at 37° C. in 5% CO2. The next day compounds are made up at 2× concentration and 100 ul are added to each cell well. The final concentration of DMSO is 0.2% and the DMSO control wells are plated in row G. The plates are then placed in the incubator for 48 hours. At 48 hours, 100 ul of media is removed from each well and analyzed by LC-MS for 2-HG concentrations. The cell plate is placed back in the incubator for another 24 hours. At 72 hours post compound addition, 10 mL/plate of Promega Cell Titer Glo reagent is thawed and mixed. The cell plate is removed from the incubator and allowed to equilibrate to room temperature. Then 100 ul of reagent is added to each well of media. The cell plate is then placed on an orbital shaker for 10 minutes and then allowed to sit at room temperature for 20 minutes. The plate is then read for luminescence with an integration time of 500 ms to determine compound effects on growth inhibition.

IC50 (IDH2 R140Q) [nM]	IC50 [1] [nM]	SMILES
100 to 1000	< 100	CC(C)Nc1nc(Nc2ccnc(F)c2)nc(-c2cccc(Cl)n2)n1 [Compound 384, 6-(6-chloropyridin-2-yl)-N^2-(2-fluoropyridin-4-yl)-N^4-isopropyl-1,3,5-triazine-2,4-diamine]
100 to 1000	< 100	CS(=O)(=O)c1cccc(Nc2nc(NC3CCOCC3)nc(-c3ccccc3)n2)c1 [Compound 306]
100 to 1000	100 to 1000	CC(C)Nc1nc(Nc2ccc(C3CC3)nc2)nc(-c2ccccc2)n1 [Compound 316, N^2-(6-cyclopropylpyridin-3-yl)-N^4-isopropyl-6-phenyl-1,3,5-triazine-2,4-diamine]
< 100	100 to 1000	CNc1cc(Nc2nc(NC(C)C)nc(-c3ccccc3)n2)ccn1 [Compound 302, N^2-isopropyl-N^4-(2-(methylamino)pyridin-4-yl)-6-phenyl-1,3,5-triazine-2,4-diamine]
< 100	< 100	c1ccc(-c2nc(Nc3ccncc3)nc(NC3C4COCC43)n2)cc1 (stereo not shown) [Compound 297, N^2-(3-oxabicyclo[3.1.0]hexan-6-yl)-6-phenyl-N^4-(pyridin-4-yl)-1,3,5-triazine-2,4-diamine]
100 to 1000	< 100	CC(C)Nc1nc(Nc2ccccc2)nc(-c2cccc(N)n2)n1 [Compound 290, 6-(6-aminopyridin-2-yl)-N^2-isopropyl-N^4-phenyl-1,3,5-triazine-2,4-diamine]
1000 to 10000	< 100	CC(C)(O)CNc1nc(Nc2ccnc(F)c2)nc(-c2cccc(Cl)n2)n1 [Compound 368, 1-(4-(6-chloropyridin-2-yl)-6-(2-fluoropyridin-4-ylamino)-1,3,5-triazin-2-ylamino)-2-methylpropan-2-ol]
< 100	< 100	CC(C)Nc1nc(Nc2ccnc(F)c2)nc(-c2ccccc2F)n1 [Compound 371, 6-(2-fluorophenyl)-N^2-(2-fluoropyridin-4-yl)-N^4-isopropyl-1,3,5-triazine-2,4-diamine]
1000 to 10000	100 to 1000	CC(C)(O)CNc1nc(Nc2ccc(F)nc2)nc(-c2cccc(Cl)n2)n1 [Compound 388, 1-(4-(6-chloropyridin-2-yl)-6-(6-fluoropyridin-3-ylamino)-1,3,5-triazin-2-ylamino)-2-methylpropan-2-ol]
100 to 1000	< 100	CC(C)(O)CNc1nc(Nc2cncc(C(F)(F)F)c2)nc(-c2cccc(Cl)n2)n1 [Compound 367, 1-(4-(6-chloropyridin-2-yl)-6-(5-(trifluoromethyl)pyridin-3-ylamino)-1,3,5-triazin-2-ylamino)-2-methylpropan-2-ol]
< 100	< 100	Cc1cc(Nc2nc(NC(C)C)nc(-c3ccccc3)n2)ccn1 [Compound 288, N^2-isopropyl-N^4-(2-methylpyridin-4-yl)-6-phenyl-1,3,5-triazine-2,4-diamine]
100 to 1000	< 100	Fc1cncc(Nc2nc(NC3CCC3)nc(-c3cccc(Cl)n3)n2)c1 [Compound 323, 6-(6-chloropyridin-2-yl)-N^2-cyclobutyl-N^4-(5-fluoropyridin-3-yl)-1,3,5-triazine-2,4-diamine]
< 100	100 to 1000	CC(C)Nc1nc(Nc2cnn(C)c2)nc(-c2ccccc2)n1 [Compound 308, N^2-isopropyl-N^4-(1-methyl-1H-pyrazol-4-yl)-6-phenyl-1,3,5-triazine-2,4-diamine]
< 100	< 100	CC(C)Nc1nc(Nc2ccnc(C(F)(F)F)c2)nc(-c2ccccc2F)n1 [Compound 370, 6-(2-fluorophenyl)-N^2-isopropyl-N^4-(2-(trifluoromethyl)pyridin-4-yl)-1,3,5-triazine-2,4-diamine]
< 100	< 100	CC(C)Nc1nc(Nc2cncs2)nc(-c2ccccc2)n1 [Compound 313, N^2-isopropyl-6-phenyl-N^4-(thiazol-5-yl)-1,3,5-triazine-2,4-diamine]
100 to 1000	100 to 1000	COCCCNc1nc(Nc2ccncc2)nc(-c2ccccc2)n1 [Compound 275, N^2-(3-methoxypropyl)-6-phenyl-N^4-(pyridin-4-yl)-1,3,5-triazine-2,4-diamine]
100 to 1000	< 100	CC(C)(O)CNc1nc(Nc2ccnc(C(F)(F)F)c2)nc(-c2ccccc2F)n1 [Compound 319, 1-(4-(2-fluorophenyl)-6-(2-(trifluoromethyl)pyridin-4-ylamino)-1,3,5-triazin-2-ylamino)-2-methylpropan-2-ol]
100 to 1000	< 100	FC(F)(F)c1cncc(Nc2nc(NC3COC3)nc(-c3cccc(C(F)(F)F)n3)n2)c1 [Compound 379, N^2-(oxetan-3-yl)-6-(6-(trifluoromethyl)pyridin-2-yl)-N^4-(5-(trifluoromethyl)pyridin-3-yl)-1,3,5-triazine-2,4-diamine]
100 to 1000	100 to 1000	O=C(Nc1nc(Nc2ccccc2)nc(-c2ccccc2)n1)c1ccc[nH]1 [Compound 414, 1H-Pyrrole-2-carboxylic acid (4-phenyl-6-phenylamino-[1,3,5]triazin-2-yl)-amide]
100 to 1000	< 100	CC(C)CNc1nc(Nc2cncc(F)c2)nc(-c2cccc(Cl)n2)n1 [Compound 399, 6-(6-chloropyridin-2-yl)-N^2-(5-fluoropyridin-3-yl)-N^4-isobutyl-1,3,5-triazine-2,4-diamine]
100 to 1000	< 100	CC(C)Nc1nc(Nc2cncc(C#N)c2)nc(-c2cccc(C(F)(F)F)n2)n1 [Compound 401, 5-(4-(isopropylamino)-6-(6-(trifluoromethyl)pyridin-2-yl)-1,3,5-triazin-2-ylamino)nicotinonitrile]
< 100	100 to 1000	Cc1ccc(Nc2nc(NC(C)C)nc(-c3ccccc3)n2)cn1 [Compound 281, N^2-isopropyl-N^4-(6-methylpyridin-3-yl)-6-phenyl-1,3,5-triazine-2,4-diamine]
100 to 1000	< 100	FC(F)(F)c1cc(Nc2nc(NC3COC3)nc(-c3cccc(Cl)n3)n2)ccn1 [Compound 356, 6-(6-Chloro-pyridin-2-yl)-N-oxetan-3-yl-N′-(2-trifluoromethyl-pyridin-4-yl)-[1,3,5]triazine-2,4-diamine]
100 to 1000	100 to 1000	Cc1ncc(Nc2nc(NC(C)C)nc(-c3ccccc3)n2)cn1 [Compound 343, N^2-isopropyl-N^4-(2-methylpyrimidin-5-yl)-6-phenyl-1,3,5-triazine-2,4-diamine]
100 to 1000	< 100	CC(C)Nc1nc(Nc2cccc(S(C)(=O)=O)c2)nc(-c2cccc(C(C)(F)F)n2)n1 [Compound 395, 6-(6-(1,1-difluoroethyl)pyridin-2-yl)-N^2-isopropyl-N^4-(3-(methylsulfonyl)phenyl)-1,3,5-triazine-2,4-diamine]
100 to 1000	100 to 1000	c1ccc(-c2nc(NCC3COC3)nc(Nc3ccncc3)n2)cc1 [Compound 300, N^2-(oxetan-3-ylmethyl)-6-phenyl-N^4-(pyridin-4-yl)-1,3,5-triazine-2,4-diamine]
< 100	< 100	CC(C)Nc1nc(Nc2cncc(C(F)(F)F)c2)nc(-c2cccc(Cl)n2)n1 [Compound 394, 6-(6-chloropyridin-2-yl)-N^2-isopropyl-N4-(5-(trifluoromethyl)pyridin-3-yl)-1,3,5-triazine-2,4-diamine]
100 to 1000	100 to 1000	COCC(C)Nc1nc(Nc2ccncc2)nc(-c2ccccc2)n1 (stereo not shown) [Compound 272, N^2-(1-methoxypropan-2-yl)-6-phenyl-N^4-(pyridin-4-yl)-1,3,5-triazine-2,4-diamine]
100 to 1000	< 100	CC(C)Nc1nc(Nc2cccc(S(=O)(=O)N3CCC3)c2)nc(-c2cccc(Cl)n2)n1 [Compound 400, N^2-(3-(azetidin-1-ylsulfonyl)phenyl)-6-(6-chloropyridin-2-yl)-N^4-isopropyl-1,3,5-triazine-2,4-diamine]
